The text below walks through data of patent US20040265341A1, “Prevention of uveitis” (Kings College London, priority 2003, published 2004).

Assay [1] has as its system uveitis. The assay can be described thus: Prevention of experimental uveitis by oral administration in the rat uveitis model. It counts as in vivo. As to conditions: oral administration to experimental animals; conjugate vs peptide alone p<0.0001.
Assay [2] relates to PBMC. The class given is cell-based, human.
Assay [3] deals with PBMC. It counts as cell-based, human. As to conditions: for concentration of IFN-γ: relapsed group.
Assay [4] deals with uveitis. As to conditions: cited from earlier work.
Where [5] appears, read: before tolerising regime, 3 patients with relapsing uveitis.

Like-named read-outs stand apart in the source and are kept apart here. Some results are limits rather than exact numbers.

For QPHDLGKVGEVIVTKD [p336-351], the development of uveitis in the assay with uveitis [1] is listed as 65.8%. Also, in the assay on uveitis [1], the “development of uveitis (animals with uveitis / total)” value is listed as 48/73. Besides, the “stimulation index (SI), individual patients” value in the assay on PBMC [2] (setting [5]) is more than 2. For the same sequence, the “stimulation index (SI), mean±sem” value turned out to be 4.1±0.8 with PBMC [2] (setting [5]) and 1.25±0.1 in the assay with PBMC [2] (before tolerising regime, 5 patients in whom uveitis was prevented). For the same sequence, the “stimulation index (SI), mean” value is 2.3±0.6 in the assay on PBMC [2] (prevented group, 3 months after tolerising regime started, immunosuppressive drugs tailed off) and 23.2 (±14.8) in the assay with PBMC [2] (relapsing group, 1-2 months after tolerising regime initiated, immunosuppressive doses decreased). In addition, the “production of IFN-γ” value in the assay with PBMC [3] (patients in whom uveitis was prevented, before and 3 months after immunosuppressive drugs withdrawn) is recorded as “negligible”. For the same sequence, the TNF-α concentrations entry with PBMC [3] (protected patients) was “negligible”; in the assay on PBMC [3] (relapsing patients, mostly 1-2 months after tolerisation) it was “increased levels”. For the same sequence, the “concentration of IFN-γ” value in the assay on PBMC [3] (1-2 months after tolerisation initiated, unstimulated 1665±1111 pg/ml) was 4723 (±2639) pg/ml; in the assay on PBMC [3] (before tolerisation, unstimulated 504±411 pg/ml) it was 758 ± 636 pg/mL. Moreover, the induction of uveitis result in the assay on uveitis [4] (Lewis rats, subcutaneously with an adjuvant, Uchio et al 1998) is listed as “uveitis can be induced”. Further, the “induction of uveitis or tolerance” value in the assay on uveitis [4] (oral or nasal administration, Hu et al 1998) is given as “induced uveitis instead of tolerance”. For the same sequence, in the assay with uveitis [4] (rats, Stanford et al 1994), the “uveitogenicity when administered to rats” value is “most effective”.
